In article PMC3152630 (Pharmaceutical research, 2011):

System: diabetic rats (blood glucose level, BGL)
Test: BGL pharmacodynamics after insulin administration to diabetic rats
Format: in vivo, rat
Conditions: bolus subcutaneous injection of 0.1 U insulin, unbalanced ANOVA, P < 0.001

Insulin
reduction in BGL compared to untreated controls: significant reduction in BGL
